The values below come from ChEMBL document CHEMBL1149767, “Structural and biological studies of mononuclear palladium(II) complexes containing N-substituted thiosemicarbazones” (2008).

Each structure is given as a SMILES string.

Common to all, as to format: functional
Test [1] has as its system Staphylococcus aureus. The experiment in a line: Antibacterial activity against Staphylococcus aureus assessed as diameter of inhibition zone at 1.0% after 24 hrs.
In test [2] the test system is Vibrio cholerae. The experiment in a line: Antibacterial activity against Vibrio cholerae assessed as diameter of inhibition zone at 0.5% after 24 hrs. Set-up: scale not given: the % may be the effect or the level left.
Test [3] deals with Escherichia coli. The test is described as follows: Antibacterial activity against Escherichia coli assessed as diameter of inhibition zone at 1.0% after 24 hrs.
Test [4] concerns Vibrio cholerae. The experiment in a line: Antibacterial activity against Vibrio cholerae assessed as diameter of inhibition zone at 0.25% after 24 hrs. Set-up: scale not given: the % may be the effect or the level left.
Test [5] has as its system Vibrio cholerae. The experiment in a line: Antibacterial activity against Vibrio cholerae assessed as diameter of inhibition zone at 2.0% after 24 hrs. More on the design: scale not given: the % may be the effect or the level left.
The test system of test [6] is Pseudomonas aeruginosa. The experiment in a line: Antibacterial activity against Pseudomonas aeruginosa assessed as diameter of inhibition zone at 2.0% after 24 hrs.
For test [7], the system named is Pseudomonas aeruginosa. The test is described as follows: Antibacterial activity against Pseudomonas aeruginosa assessed as diameter of inhibition zone at 0.5% after 24 hrs.
Test [8] relates to Escherichia coli. The experiment in a line: Antibacterial activity against Escherichia coli assessed as diameter of inhibition zone at 0.25% after 24 hrs.
Test [9] deals with Escherichia coli. The test is described as follows: Antibacterial activity against Escherichia coli assessed as diameter of inhibition zone at 0.5% after 24 hrs.
The test system of test [10] is Pseudomonas aeruginosa. The experiment in a line: Antibacterial activity against Pseudomonas aeruginosa assessed as diameter of inhibition zone at 1.0% after 24 hrs.
In test [11] the test system is Staphylococcus aureus. The test is described as follows: Antibacterial activity against Staphylococcus aureus assessed as diameter of inhibition zone at 2.0% after 24 hrs.
The test system of test [12] is Staphylococcus aureus. The test is described as follows: Antibacterial activity against Staphylococcus aureus assessed as diameter of inhibition zone at 0.5% after 24 hrs.
In test [13] the test system is Vibrio cholerae. The experiment in a line: Antibacterial activity against Vibrio cholerae assessed as diameter of inhibition zone at 1.0% after 24 hrs. More on the design: scale not given: the % may be the effect or the level left.
The subject of test [14] is Pseudomonas aeruginosa. The experiment in a line: Antibacterial activity against Pseudomonas aeruginosa assessed as diameter of inhibition zone at 0.25% after 24 hrs.
Test [15] has as its system Escherichia coli. The experiment in a line: Antibacterial activity against Escherichia coli assessed as diameter of inhibition zone at 2.0% after 24 hrs.
Test [16] relates to Staphylococcus aureus. The experiment in a line: Antibacterial activity against Staphylococcus aureus assessed as diameter of inhibition zone at 0.25% after 24 hrs.

On to `Oc1ccccc1/C=N/NC(=S)Nc1ccccc1`, for which the inhibition zone (IZ) with Staphylococcus aureus [1] turned out to be 8 mm; in the test on Escherichia coli [3], 8 mm; in the test with Pseudomonas aeruginosa [6], 9 mm; in the test on Pseudomonas aeruginosa [7], 5 mm; in the test on Escherichia coli [8], 5 mm; in the test on Escherichia coli [9], 7 mm. For the same compound, the inhibition zone (IZ) in the test on Pseudomonas aeruginosa [10] is 7 mm; with Staphylococcus aureus [11], 9 mm; with Staphylococcus aureus [12] it was 6 mm. In addition, the Activity with Vibrio cholerae [2] worked out at 6%; with Vibrio cholerae [4] it was 4%; in the test on Vibrio cholerae [5] it was 9%; in the test with Vibrio cholerae [13] it was 8%.

For the compound `CN[C@@H]1[C@H](O[C@H]2[C@H](O[C@H]3[C@H](O)[C@@H](O)[C@H](N=C(N)N)[C@@H](O)[C@@H]3N=C(N)N)O[C@@H](C)[C@]2(O)C=O)O[C@@H](CO)[C@H](O)[C@H]1O` [STREPTOMYCIN], the inhibition zone (IZ) with Staphylococcus aureus [1] was 23 mm; in the test with Pseudomonas aeruginosa [14] it was 18 mm; in the test with Escherichia coli [3], 22 mm; in the test with Pseudomonas aeruginosa [6], 24 mm; in the test on Pseudomonas aeruginosa [7] it was 21 mm; in the test on Escherichia coli [8] it was 18 mm. Also, the inhibition zone (IZ) was found to be 20 mm with Escherichia coli [9]; 25 mm in the test with Escherichia coli [15]; 23 mm in the test with Pseudomonas aeruginosa [10]; 25 mm in the test on Staphylococcus aureus [11]; 19 mm in the test on Staphylococcus aureus [12]; 17 mm in the test with Staphylococcus aureus [16]. Also, the Activity with Vibrio cholerae [2] was 17%; in the test on Vibrio cholerae [4], 14%; in the test with Vibrio cholerae [5], 22%; with Vibrio cholerae [13] it was 20%.
